Where “and” joins values, the source holds several entries; their conditions need not be identical. Identical values can stand only once. Toxic doses and inconclusive results are not listed.
Test system: L1210 leukemia ip in BDF1 mice, survival T/C
Assay: NCI In Vivo Anticancer Drug Screen. Data for tumor model L1210 Leukemia (intraperitoneal) in B6D2F1 (BDF1) mice
Conditions: higher = longer survival
Method in brief: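 Each compound was tested against a transplantable tumor grown in mice. The endpoint was survival, with treated animals benchmarked against vehicle controls as a simple ratio.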

## O=NN(CCCl)C(=O)NC1CCCCC1
endpoint: mean survival time, dose: 9.0 mg/kg/injection, schedule: Q01DX003 (ip), vehicle: carboxymethylcellulose (CMC)
  T/C: 154 % of control
endpoint: mean survival time, dose: 9.3 mg/kg/injection, schedule: Q## X004 (ip), vehicle: carboxymethylcellulose (CMC)
  T/C: 112 % of control
endpoint: mean survival time, dose: 9.37 mg/kg/injection, schedule: Q01DX001 (ip), vehicle: saline
  T/C: 102 % of control
endpoint: mean survival time, dose: 10.0 mg/kg/injection, schedule: Q01DX001 (ip), vehicle: carboxymethylcellulose (CMC)
  T/C: 116 % of control
endpoint: mean survival time, dose: 10.0 mg/kg/injection, schedule: Q01DX001 (iv), vehicle: clinical formulation
  T/C: 160 % of control
endpoint: mean survival time, dose: 10.0 mg/kg/injection, schedule: Q## X032 (ip), vehicle: carboxymethylcellulose (CMC)
  T/C: 122 % of control
endpoint: mean survival time, dose: 12.5 mg/kg/injection, schedule: Q01DX009 (ip), vehicle: Klucel (hydroxypropylcellulose) (HPC)
  T/C: 172 % of control
endpoint: mean survival time, dose: 12.5 mg/kg/injection, schedule: Q01DX Z (ip), vehicle: carboxymethylcellulose (CMC)
  T/C: 156 % of control
endpoint: mean survival time, dose: 12.5 mg/kg/injection, schedule: Q03HX024 (ip), vehicle: carboxymethylcellulose (CMC)
  T/C: 154 % of control
endpoint: mean survival time, dose: 15.0 mg/kg/injection, schedule: Q01DX001 (iv), vehicle: Klucel (hydroxypropylcellulose) (HPC)
  T/C: 152 % of control
endpoint: mean survival time, dose: 16.0 mg/kg/injection, schedule: Q01DX009 (ip), vehicle: saline with Tween-80
  T/C: 161 % of control
endpoint: mean survival time, dose: 16.0 mg/kg/injection, schedule: Q01DX Z (ip), vehicle: carboxymethylcellulose (CMC)
  T/C: 158 % of control
endpoint: mean survival time, dose: 16.0 mg/kg/injection, schedule: Q03HX003 (oral), vehicle: saline
  T/C: 161 % of control
endpoint: mean survival time, dose: 18.0 mg/kg/injection, schedule: Q01DX001 (ip), vehicle: carboxymethylcellulose (CMC)
  T/C: 159 % of control
endpoint: mean survival time, dose: 18.5 mg/kg/injection, schedule: Q01DX001 (ip), vehicle: carboxymethylcellulose (CMC)
  T/C: 153 % of control
endpoint: mean survival time, dose: 18.75 mg/kg/injection, schedule: Q01DX001 (ip), vehicle: saline
  T/C: 109 % of control
endpoint: mean survival time, dose: 20.0 mg/kg/injection, schedule: Q01DX001 (ip), vehicle: carboxymethylcellulose (CMC)
  T/C: 160 % of control
endpoint: mean survival time, dose: 20.0 mg/kg/injection, schedule: Q04DX004 (ip), vehicle: Klucel (hydroxypropylcellulose) (HPC)
  T/C: 162 % of control
endpoint: mean survival time, dose: 22.0 mg/kg/injection, schedule: Q01DX001 (ip), vehicle: carboxymethylcellulose (CMC)
  T/C: 156 % of control
endpoint: mean survival time, dose: 22.0 mg/kg/injection, schedule: Q01DX001 (iv), vehicle: saline
  T/C: 165 % of control
endpoint: mean survival time, dose: 25.0 mg/kg/injection, schedule: Q03HX008 (ip), vehicle: carboxymethylcellulose (CMC)
  T/C: 112 % of control
endpoint: mean survival time, dose: 30.0 mg/kg/injection, schedule: Q01DX001 (ip), vehicle: saline
  T/C: 156 % of control
endpoint: mean survival time, dose: 32.0 mg/kg/injection, schedule: Q01DX005 (oral), vehicle: saline
  T/C: 121 % of control
endpoint: mean survival time, dose: 50.0 mg/kg/injection, schedule: Q01DX Z (ip), vehicle: carboxymethylcellulose (CMC)
  T/C: 118 % of control
endpoint: mean survival time, dose: 50.0 mg/kg/injection, schedule: Q07DX Z (ip), vehicle: carboxymethylcellulose (CMC)
  T/C: 158 % of control
endpoint: mean survival time, dose: 50.0 mg/kg/injection, schedule: Q## X004 (ip), vehicle: carboxymethylcellulose (CMC)
  T/C: 160 % of control
endpoint: mean survival time, dose: 50.0 mg/kg/injection, schedule: Q## X015 (ip), vehicle: carboxymethylcellulose (CMC)
  T/C: 171 % of control
endpoint: mean survival time, dose: 62.0 mg/kg/injection, schedule: Q01DX Z (ip), vehicle: carboxymethylcellulose (CMC)
  T/C: 92 % of control
endpoint: mean survival time, dose: 75.0 mg/kg/injection, schedule: Q## X008 (ip), vehicle: carboxymethylcellulose (CMC)
  T/C: 163 % of control
endpoint: mean survival time, dose: 97.0 mg/kg/injection, schedule: Q01DX001 (oral), vehicle: carboxymethylcellulose (CMC)
  T/C: 95 % of control
endpoint: mean survival time, dose: 100.0 mg/kg/injection, schedule: Q01DX001 (ip), vehicle: carboxymethylcellulose (CMC)
  T/C: 164 % of control
endpoint: mean survival time, dose: 100.0 mg/kg/injection, schedule: Q01DX001 (ip), vehicle: saline
  T/C: 104 % of control
endpoint: mean survival time, dose: 100.0 mg/kg/injection, schedule: Q01DX001 (oral), vehicle: saline
  T/C: 95 % of control
endpoint: mean survival time, dose: 112.0 mg/kg/injection, schedule: Q01DX001 (ip), vehicle: carboxymethylcellulose (CMC)
  T/C: 164 % of control
endpoint: mean survival time, dose: 112.0 mg/kg/injection, schedule: Q## X001 (ip), vehicle: carboxymethylcellulose (CMC)
  T/C: 152 % of control
endpoint: mean survival time, dose: 112.0 mg/kg/injection, schedule: Q## X008 (ip), vehicle: carboxymethylcellulose (CMC)
  T/C: 121 % of control
endpoint: mean survival time, dose: 112.0 mg/kg/injection, schedule: Q## X015 (ip), vehicle: carboxymethylcellulose (CMC)
  T/C: 119 % of control
endpoint: mean survival time, dose: 200.0 mg/kg/injection, schedule: Q01DX001 (ip), vehicle: Klucel (hydroxypropylcellulose) (HPC)
  T/C: 110 % of control
endpoint: mean survival time, dose: 200.0 mg/kg/injection, schedule: Q01DX001 (ip), vehicle: carboxymethylcellulose (CMC)
  T/C: 104 % of control
endpoint: mean survival time, dose: 200.0 mg/kg/injection, schedule: Q01DX001 (oral), vehicle: carboxymethylcellulose (CMC)
  T/C: 159 % of control
endpoint: mean survival time, dose: 400.0 mg/kg/injection, schedule: Q01DX001 (ip), vehicle: carboxymethylcellulose (CMC)
  T/C: 93 % of control
endpoint: median survival time, dose: 12.5 mg/kg/injection, schedule: Q01DX001 (ip), vehicle: saline with Tween-80
  T/C: 99 % of control and 100 % of control
endpoint: median survival time, dose: 25.0 mg/kg/injection, schedule: Q01DX001 (ip), vehicle: saline with Tween-80
  T/C: 100 % of control and 101 % of control
endpoint: median survival time, dose: 25.0 mg/kg/injection, schedule: Q01DX001 (oral), vehicle: Klucel (hydroxypropylcellulose) (HPC)
  T/C: 158 % of control
endpoint: median survival time, dose: 50.0 mg/kg/injection, schedule: Q01DX001 (ip), vehicle: saline with Tween-80
  T/C: 112 % of control and 113 % of control
endpoint: median survival time, dose: 200.0 mg/kg/injection, schedule: Q01DX001 (ip), vehicle: saline with Tween-80
  T/C: 112 % of control and 113 % of control
